Measurements from PMC9239247, “Listeria monocytogenes TcyKLMN Cystine/Cysteine Transporter Facilitates Glutathione Synthesis and Virulence Gene Expression” (mBio, 2022).

Molecular target: T1, TcyK (Listeria monocytogenes, UniProt A0A0H3GMT4)
T1 construct: gene LMRG_01494; residues 38-286, without membrane-anchoring domain; N-terminal His-tag (pET-19b, cleavage not mentioned); codon-optimised, E. coli BL21-Gold(DE3)
Assay: isothermal titration calorimetry
Assay type: binding

T1 sequence (A0A0H3GMT4 entry or part of it): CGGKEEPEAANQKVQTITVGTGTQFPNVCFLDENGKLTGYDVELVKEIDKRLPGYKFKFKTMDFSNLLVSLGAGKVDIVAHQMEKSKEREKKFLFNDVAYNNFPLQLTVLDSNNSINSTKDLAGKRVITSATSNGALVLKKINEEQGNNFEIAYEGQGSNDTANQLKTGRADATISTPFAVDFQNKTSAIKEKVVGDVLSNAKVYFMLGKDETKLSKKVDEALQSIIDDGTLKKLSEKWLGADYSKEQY

**Q.** `N[C@@H](CSSC[C@H](N)C(=O)O)C(=O)O` [CSSC, cystine] was tested. Which Kd did it give?
**A.** ~13 µM

**Q.** Which Kd does the source give for `N[C@@H](CS)C(=O)O` [Cys, L-cysteine] here?
**A.** ~66.7 µM
